From US20060020036A1, “Methods and compositions to promote bone homestasis” (priority 2004, published 2006)

Test system: osteogenic markers mRNA in MPCs infected with Ad-NR1H3
Assay: Osteogenic marker mRNA levels (rtRT-PCR) in MPCs infected with Ad-NR1H3 + T0901317
Type: cell-based, human
Conditions: Ad-NR1H3 + T0901317 (1 μM)
Protocol: Osteogenic differentiation of MPCs into osteoblasts is accompanied by the up-regulation of osteogenic proteins. […] The MPCs that are used in this study are profiled for the up-regulation of a limited set of osteogenic markers by BMP2. Markers that show differential expression for BMP2 are subsequently tested against mRNA derived from Ad-NR5A2 infected cells or derived from Ad-NR1H3+T0901317 treated cells. 100,000 MPCs are seeded in each well of a 6 well plate in 2 ml MPC medium, containing 10% FCS. The next day, after incubation at 37° C., 10% CO2 in a humidified incubator, cells are co-infected with AdC15-hCAR (final MOI of 750) and Ad-NR5A2, Ad-NR1H3+T0901317 (1 μM) or Ad-BMP2 (positive control) or Ad-eGFP or Ad-luciferase as negative controls (final MOIs of 1250 and 2500). Cells are incubated at 37° C., 10% CO2 in a humidified incubator for a further six days unless cells are already harvested for RNA isolation. Virus is removed and replaced by 2 ml fresh OS medium (proprietary medium containing 10% FCS). Over the next 3 weeks, medium is refreshed 3 times per 2 weeks. Every other time, medium is refreshed half or completely. Monolayers are harvested at several time points (see FIG. 15), total RNA is harvested and quantified and rtRT-PCRs are run as follows: monolayers are washed with ice cold PBS and harvested by adding SV RNA Lysis Buffer. Total RNA is prepared using the SV Total RNA isolation System (Promega, Cat # Z3100). RNA concentration is measured with the Ribogreen RNA Quantification kit (Molecular Probes, Leiden, The Netherlands, Cat No. R-11490). cDNA synthesis is performed using 20 ng total RNA per reaction using the TaqMan Universal PCR Master Mix, No AmpErase UNG, kit (Applied Biosystems, Warrington, UK, Part number 4324018). For each reverse transcriptase (RT) reaction a minus-RT reaction (negative control: no enzyme included in the reaction) is performed. The real-time reverse transcriptase (rtRT)-PCR reaction is performed with gene specific primers on both cDNA and minus-RT samples, using the SYBR Green PCR Master Mix (Applied Biosystems, Warrington, UK, Part number 4309155). Primers are quality controlled by performing PCR reactions on human genomic DNA and on plasmids containing the cDNA encoded by the gene studied if available. If the quality is unsatisfactory, additional primers are designed or validated primer sets are purchased (ABI). For the normalization of the expression levels a RT-PCR reaction is performed on human β-actin using the Human β-actin kit (Applied Biosystems, Warrington, UK, Part number 4310881E). The following program is run on a real-time PCR apparatus (ABI PRISM 7000 Sequence Detection System): 10 min at 25° C., 30 min at 48° C., 5 min at 95° C.
Expression levels for osteogenic marker genes are first normalized for beta-actin levels. The resulting data for Ad-BMP2, Ad-NR5A2 and Ad-NR1H3+T0901317 (1 μM) samples are then compared to those of Ad-eGFP or Ad-luciferase negative control samples, harvested at the same time points, for cells infected at the same MOI.

[1] = up-regulated if 4-fold higher than negative control, one or more time points

O=S(=O)(c1ccccc1)N(CC(F)(F)F)c1ccc(C(O)(C(F)(F)F)C(F)(F)F)cc1 [T0901317, N-(2,2,2-trifluoroethyl)-N-[4-[2,2,2-trifluoro-1-hydroxy-1-(trifluoromethyl)ethyl]phenyl]-benzenesulfonamide]
BAP mRNA expression [1]: up-regulated expression
PTHR1 mRNA expression [1]: up-regulated expression
RANKL mRNA expression [1]: up-regulated expression
aromatase mRNA expression [1]: up-regulated expression
osteopontin mRNA expression [1]: up-regulated expression
mRNA levels of osteogenic markers (MPCs): up-regulate mRNA levels of osteogenic markers
